Data reported in article PMC12775819, “Optimizing PSMA-617-based inhibitors through charged linker modifications: Insights into structure-activity relationships” (Theranostics, 2026).
One block for each compound: values may come before it. Non-standard residues stand in square brackets, D forms with d. Residues, ends and D or L forms follow the SMILES beside them. *: point of attachment. DOTA = O=C(O)CN1CCN(CC(=O)O)CCN(CC(=O)*)CCN(CC(=O)O)CC1; EuK = O=C(O)CC[C@H](NC(=O)N[C@@H](CCCCN*)C(=O)O)C(=O)O; 2Nal = N[C@@H](Cc1ccc2ccccc2c1)C(=O)O; Trx = NC[C@H]1CC[C@H](C(=O)O)CC1

How the values were obtained:
in vitro = in vitro ADME; details: mouse, serum
Protocol: Incubation in human and murine serum (BioIVT, United Kingdom) was used to determine the stability of the described precursors. First, the substances were labeled with [^177Lu]Lu^3+ and added to 100 µl of pre-warmed serum (0.5 nmol, 3 - 10 MBq). The reaction mixture was incubated at 37 °C and 10 µl samples were taken at regular intervals (0, 6, 24, 48, 72 h). After precipitation of the proteins by the addition of 30 µl of acetonitrile, the probes were centrifuged for 2 min at 14,000 rpm and the stability determined by analytical radio-HPLC of the […].

[1] = Partition coefficient (logD), n-octanol/PBS pH 7.4; format: physicochemical; details: 68Ga-labeled compounds, mean ± SD
Protocol: To determine the lipophilicity expressed as distribution coefficient (logD), a two-phase system of n-octanol (500 µl) and phosphate buffered saline (PBS) (490 µl) at pH 7.4 was used (n = 4). Compounds were radiolabeled with [^68Ga]Ga^3+ and the mixture diluted to a concentration of 0.25 µM in PBS. 10 µl of the 0.25 µM dilution were added to the n-octanol / PBS mixture. After extensive mixing, the 2-phase system was centrifuged for 10 min at 14,000 rpm and 4 °C. Two samples from each phase (100 µl) were taken and measured in a γ-gamma counter (PerkinElmer, Waltham, USA). […] The data is presented as the mean value with the standard deviation (SD).

in vivo = details: male, BALB/c nu/nu, mouse, iv, 500 pmol, total radioactivity
[2] = system: PSMA-positive LNCaP cells; assay: Surface binding and internalization of 68Ga-labeled compounds; format: cell-based, human; details: for Internalization Block / Surface Binding Block / Internalization / Surface Binding: 30 nM, 45 min, 37 °C; for Internalization Block / Surface Binding Block: blocked with 2-PMPA 500 µM; for Internalization / Surface Binding: unblocked; for Specific Internalization / Specific Surface Binding: difference of unblocked and blocked values
Protocol: (§1) The PSMA-positive human cell line LNCaP (human lymph node carcinoma of the prostate; ATCC CRL-1740) was cultivated adherently at 37 °C and humidified 5% CO2 with RPMI-1640 (Thermo Fisher Scientific, Germany) supplemented with 10% fetal bovine serum (Sigma-Aldrich, Germany), 1% sodium pyruvate (Life Technologies, Germany) and 1% penicillin/[…] (Thermo Fisher Scientific, Germany). A mixture of trypsin/ethylenediaminetetraacetic acid (0.05% / 0.02%; Thermo Fisher Scientific, Germany) was used for cell harvesting (last authentication: April 2024).
Internalization assays were performed on poly-L-lysine coated 24-well cell culture plates. The day before the experiment, LNCaP cells (10^5 cells/well) were harvested and seeded to the wells. The cells were incubated with the ^68Ga-labeled compounds (250 µl, 30 nM, diluted in RPMI medium) for 45 min at 37 °C. […] The medium was then removed and the cells washed with ice-cold PBS buffer (3 × 1 ml). To remove surface bound compounds, ice-cold glycine buffer (2 × 0.5 ml, 50 mM, pH 2.8) was added to the wells and collected after 5 min in a combined fraction. After washing once with PBS (1 ml), NaOH (0.5 ml, 0.3 M) was added to the cells for lysation. Collected surface-bound, internalized fractions and standards from the stock solutions (25 µl) were measured in a γ-counter. Data was normalized and presented as percentage of the initially added radioactivity bound to 10^5 cells [%IA/10^5 cells].

PSMA = target: T1, PSMA (Homo sapiens, UniProt Q04609); assay: Competitive cell binding (IC50) against [68Ga]Ga-PSMA-10 on LNCaP cells; details: unlabeled precursors vs [68Ga]Ga-PSMA-10 (0.8 nM), 45 min, room temperature, ± SD
T1 construct: incubated with [^68Ga]Ga-PSMA-10 (0.8 nM) and LNCaP cells (10^5 cells/well) for 45 min at room temperature; host or cells: LNCaP (human prostate carcinoma lymph node metastasis)
Protocol: as §1
To determine the binding affinity of the investigated compounds, competitive cell binding studies were performed with ^68Ga-labeled PSMA-10. Dilution series of twelve concentrations in medium were prepared from the precursor peptides PS1 - PS11 including concentrations of 0, 0.5, 1, 2.5, 5, 10, 25, 50, 100, 500, 1,000, and 5,000 nM. The assay was performed on 96-well filter plates (Merck, Darmstadt, Germany). Medium (100 µl per well) was added before the experiment and incubated for 1 h at room temperature to block non-specific binding. The medium was removed and the diluted compounds were incubated with [^68Ga]Ga-PSMA-10 (0.8 nM) and LNCaP cells (10^5 cells/well) for 45 min at room temperature (total volume 100 µl/well). Cells were washed with PBS buffer (2× 100 µl, 1× 200 µl) over a MultiScreen 96-well vacuum filtration system (Merck Millipore, Billerica, USA). The filters containing the retained cells were punched out and the radioactivity was quantified using a γ-counter. By applying a non-linear regression algorithm (GraphPad Prism 8.0.1., Boston, USA), the specific inhibitory concentration of 50% (IC50) could be determined. The experiment was repeated at least three times per compound and the data presented as IC50 ± standard deviation.

[3] = Static small-animal PET imaging 1 h and 2 h p.i.; details: male, BALB/c nu/nu, mouse, tumor (LNCaP xenograft), iv, 500 pmol, total radioactivity, SUV tumor, 68Ga-labeled, 0.5 nmol i.v., n = 1, SD from VOIs
[4] = system: LNCaP xenograft-bearing BALB/c nu/nu mice; assay: Static small-animal PET imaging 1 h and 2 h p.i.; details: 68Ga-labeled, 0.5 nmol i.v., n = 1, SD from VOIs

T1 sequence (Q04609 whole entry): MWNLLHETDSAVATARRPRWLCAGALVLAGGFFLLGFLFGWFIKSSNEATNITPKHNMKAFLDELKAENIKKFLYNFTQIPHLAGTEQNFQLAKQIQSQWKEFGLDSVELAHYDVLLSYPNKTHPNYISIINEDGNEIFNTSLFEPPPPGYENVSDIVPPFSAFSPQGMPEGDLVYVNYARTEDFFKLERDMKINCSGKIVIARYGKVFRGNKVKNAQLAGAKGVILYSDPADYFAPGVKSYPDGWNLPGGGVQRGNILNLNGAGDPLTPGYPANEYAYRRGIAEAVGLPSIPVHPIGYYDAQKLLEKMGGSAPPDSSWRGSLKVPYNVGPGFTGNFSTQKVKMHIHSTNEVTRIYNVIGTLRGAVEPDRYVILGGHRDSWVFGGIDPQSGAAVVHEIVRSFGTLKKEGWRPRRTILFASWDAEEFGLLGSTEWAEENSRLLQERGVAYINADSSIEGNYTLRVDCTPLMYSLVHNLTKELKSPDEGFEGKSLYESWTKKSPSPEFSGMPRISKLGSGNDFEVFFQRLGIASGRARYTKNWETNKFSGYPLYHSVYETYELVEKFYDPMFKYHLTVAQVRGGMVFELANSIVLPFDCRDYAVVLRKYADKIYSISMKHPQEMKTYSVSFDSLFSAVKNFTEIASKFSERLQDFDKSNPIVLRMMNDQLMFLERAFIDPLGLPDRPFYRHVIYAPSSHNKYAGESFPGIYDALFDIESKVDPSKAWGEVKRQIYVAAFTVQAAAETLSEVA

metabolised at 24 h, 5 µM (in vitro): ~40%
SMILES: O=C(O)CC[C@H](NC(=O)N[C@@H](CCCCNC(=O)[C@H](Cc1c[nH]cn1)NC(=O)[C@H](Cc1c[nH]cn1)NC(=O)[C@H](Cc1c[nH]cn1)NC(=O)[C@H](Cc1ccc2ccccc2c1)NC(=O)[C@H]1CC[C@H](CNC(=O)CN2CCN(CC(=O)O)CCN(CC(=O)O)CCN(CC(=O)O)CC2)CC1)C(=O)O)C(=O)O [[^177Lu]Lu-PS9, metal not drawn] ({DOTA-Trx}-[2Nal]HHH-EuK)

logD ([1]; read-out: Partition Coefficient [logDoctanol/PBS]): -3.6 ± 0.3 | SUV at 1 h (in vivo; SUV kidneys): 3.05 ± 0.01 SUV | SUV at 2 h (in vivo; SUV kidneys): 1.56 ± 0.13 SUV | SUV at 1 h (in vivo; SUV muscle): 0.13 ± 0.03 SUV | SUV at 2 h (in vivo; SUV muscle): 0.1 ± 0.01 SUV | SUV at 1 h (in vivo; SUV tumor): 0.93 ± 0.08 SUV | SUV at 2 h (in vivo; SUV tumor): 0.92 ± 0.06 SUV | IC50 (PSMA): 37 ± 11.4 nM
SMILES: O=C(O)CC[C@H](NC(=O)N[C@@H](CCCCNC(=O)[C@H](Cc1ccc2ccccc2c1)NC(=O)[C@H]1CC[C@H](CNC(=O)[C@H](Cc2c[nH]cn2)NC(=O)[C@H](CCC(=O)O)NC(=O)[C@H](Cc2c[nH]cn2)NC(=O)[C@H](CCC(=O)O)NC(=O)[C@H](Cc2c[nH]cn2)NC(=O)[C@H](CCC(=O)O)NC(=O)CN2CCN(CC(=O)O)CCN(CC(=O)O)CCN(CC(=O)O)CC2)CC1)C(=O)O)C(=O)O [PS3, EuK-NaI-ChX-(HE)3-DOTA] ({DOTA}-EHEHEH[Trx][2Nal]-EuK)
Internalization Block [2]: 0.112 ± 0.022 %Binding / %Internalization | Surface Binding Block [2]: 0.069 ± 0.129 %Binding / %Internalization | Internalization [2]: 0.67 ± 0.14 %Binding / %Internalization | Surface Binding [2]: 1.32 ± 0.11 %Binding / %Internalization | Specific Internalization [2]: 0.56 ± 0.42 %Binding / %Internalization | Specific Surface Binding [2]: 1.26 ± 1.97 %Binding / %Internalization

SUV at 1 h ([3]; static PET 1 h p.i.): 0.43 ± 0.06 SUV | SUV at 2 h ([3]; static PET 2 h p.i.): 0.3 ± 0.11 SUV
SMILES: O=C(O)CC[C@H](NC(=O)N[C@@H](CCCCNC(=O)[C@H](Cc1c[nH]cn1)NC(=O)[C@H](CCC(=O)O)NC(=O)[C@H](Cc1c[nH]cn1)NC(=O)[C@H](CCC(=O)O)NC(=O)[C@H](Cc1c[nH]cn1)NC(=O)[C@H](CCC(=O)O)NC(=O)[C@H](Cc1ccc2ccccc2c1)NC(=O)[C@H]1CC[C@H](CNC(=O)CN2CCN(CC(=O)O)CCN(CC(=O)O)CCN(CC(=O)O)CC2)CC1)C(=O)O)C(=O)O [[^68Ga]Ga-PS1, metal not drawn] ({DOTA-Trx}-[2Nal]EHEHEH-EuK)

Partition Coefficient [logDoctanol/PBS] [1]: -2.7 ± 0.2 | SUV kidneys ([4]; static PET 1 h p.i.): 1.25 ± 0.14 g/mL | SUV muscle ([4]; static PET 1 h p.i.): 0.073 ± 0.004 g/mL | SUV tumor ([4]; static PET 1 h p.i.): 0.63 ± 0.02 g/mL | SUV kidneys ([4]; static PET 2 h p.i.): 0.28 ± 0.06 g/mL | SUV muscle ([4]; static PET 2 h p.i.): 0.02 ± 0.01 g/mL | SUV tumor ([4]; static PET 2 h p.i.): 0.52 ± 0.16 g/mL | IC50 (PSMA): 21.8 ± 3.13 nM
SMILES: O=C(O)CC[C@H](NC(=O)N[C@@H](CCCCNC(=O)[C@H](Cc1ccc2ccccc2c1)NC(=O)[C@H]1CC[C@H](CNC(=O)CN2CCN(CC(=O)O)CCN(CC(=O)O)CCN(CC(=O)O)CC2)CC1)C(=O)O)C(=O)O [PSMA-617, EuK-NaI-ChX-DOTA]
Internalization Block [2]: 0.210 ± 0.036 %Binding / %Internalization | Surface Binding Block [2]: 0.062 ± 0.013 %Binding / %Internalization | Internalization [2]: 0.50 ± 0.05 %Binding / %Internalization | Surface Binding [2]: 0.79 ± 0.13 %Binding / %Internalization | Specific Internalization [2]: 0.28 ± 0.27 %Binding / %Internalization | Specific Surface Binding [2]: 0.72 ± 0.38 %Binding / %Internalization
